Article PMC5107945, “Abscinazole-E3M, a practical inhibitor of abscisic acid 8′-hydroxylase for improving drought tolerance” (Scientific Reports, 2016)

Key:
[1] = test system: Arabidopsis seed germination; test: Arabidopsis seed germination assay; format: in vivo, Arabidopsis (Columbia accession)
Procedure: Figure 3 Effects of (−)-Abz-T compounds on Arabidopsis seed germination compared with that of (−)-Abz-E2B. Seed germination rates in the presence of 0.1 μM ABA and the indicated concentrations of azole inhibitors at a time when the germination rate of plants treated only with ABA was 80% (n = 3; error bars represent s.d.). Compound 6 is also referred to as Abz-E3M.
For the Arabidopsis seed germination assay, 25 to 40 seeds (Columbia accession) were sterilised successively by soaking in 70% EtOH for 30 min and reagent-grade EtOH for 1 min. They were then soaked in distilled water and incubated in the darkness at 5 °C for 3 d. The stratified seeds were then soaked in 100 μL of a test medium liquid agar in 96-well plates and allowed to germinate under continuous illumination at 22 or 30 °C. In these assays, we used the classic definition of radical emergence for seed germination. All of the assays were conducted at least three times.

maize stomatal movement = test: Thermal imaging and transpirational water loss analysis in maize; format: in vivo; conditions: 10 mL of 100 μM sprayed per plant, overnight
Procedure: The effects of (-)-Abz-[…] were also determined relative to stomatal apertures. Arabidopsis grown in soil pots underwent moderate drought stress under the optimal growth conditions of 22 °C and 60% relative humidity. Under these growth conditions, the leaf surface temperature of the mock-treated controls was 19.5 °C, which was lower than the surrounding atmospheric temperature because of transpirational water loss (Fig. 6a,b)[30]. […] Finally, we examined the effects of (-)-Abz-[…] on drought tolerance under more practical conditions. Three-week-old Arabidopsis were sprayed with an aqueous solution containing 50 μM (-)-Abz-[…]. Water was not supplied for 12 days, and then the plants were rehydrated. […] We also tested the effects of (-)-Abz-[…] on a monocot crop, maize, to evaluate whether (-)-Abz-[…] affected stomatal movement and enhanced ABA response across plant species. […] Thus, the effects of (-)-Abz-[…] were not restricted to the model plant Arabidopsis. Figure 7 Effects of (-)-Abz-[…] on maize. (a) Thermal images of the leaf surface temperatures of (-)-Abz-[…]-treated maize plants. (b) Leaf surface temperatures of (-)-Abz-[…]-treated maize plants. The stomatal conductance (c) and transpiration rate (d) in (-)-Abz-[…]-treated maize at different light intensities. […] Values are means with s.d. (n = 4 for leaf surface temperature, n = 3 for stomatal conductance and transpiration rate). (e) Effects of (-)-Abz-[…] on endogenous ABA levels. (f) Expression levels of ZmLEA, Zm.12309.1.S and ZmCOR410 after the (-)-Abz-[…] treatment. […] After an overnight incubation, the conductance and transpiration rate were analysed using an LI-6400 (Li-Cor Biosciences), and the leaf surface temperatures were measured using a thermal imaging camera ([…], Nippon Avionics Co., Ltd.) in the glass house. Temperatures on the leaf surfaces were analysed by NS9200 software (Nippon Avionics Co., Ltd.).

[2] = test system: ABA-responsive genes ZmLEA, Zm.12309.1.S and ZmCOR410; test: qRT-PCR of ABA-responsive genes in maize; format: in vivo, Maize (cv. Gold rush); conditions: maize 2-week-old seedlings, roots dipped in 100 μM overnight, aerial shoot tissues
Procedure: The effects of (-)-Abz-[…] were also determined relative to stomatal apertures. Arabidopsis grown in soil pots underwent moderate drought stress under the optimal growth conditions of 22 °C and 60% relative humidity. Under these growth conditions, the leaf surface temperature of the mock-treated controls was 19.5 °C, which was lower than the surrounding atmospheric temperature because of transpirational water loss (Fig. 6a,b)[30]. […] Finally, we examined the effects of (-)-Abz-[…] on drought tolerance under more practical conditions. Three-week-old Arabidopsis were sprayed with an aqueous solution containing 50 μM (-)-Abz-[…]. Water was not supplied for 12 days, and then the plants were rehydrated. […] We also tested the effects of (-)-Abz-[…] on a monocot crop, maize, to evaluate whether (-)-Abz-[…] affected stomatal movement and enhanced ABA response across plant species. […] Thus, the effects of (-)-Abz-[…] were not restricted to the model plant Arabidopsis. Figure 7 Effects of (-)-Abz-[…] on maize. (a) Thermal images of the leaf surface temperatures of (-)-Abz-[…]-treated maize plants. (b) Leaf surface temperatures of (-)-Abz-[…]-treated maize plants. The stomatal conductance (c) and transpiration rate (d) in (-)-Abz-[…]-treated maize at different light intensities. […] Values are means with s.d. (n = 4 for leaf surface temperature, n = 3 for stomatal conductance and transpiration rate). […]

abscinazole-E3M [(−)-6]
Effect on Arabidopsis seed germination under high temperature conditions ([1]; 30 °C, thermoinhibition, Fig. S3): inhibited Arabidopsis seed germination
Potency in enhancing ABA's effects on seed germination relative to (−)-Abz-E2B ([1]; co-treatment with ABA (0.1 μM)): 10 fold
Effect on ABA's inhibition of Arabidopsis seed germination ([1]; in the presence of 0.1 μM ABA, Fig. 3): enhanced the effects of ABA
Leaf surface temperature (maize stomatal movement): increased the leaf surface temperature
Stomatal conductance (maize stomatal movement): suppressed
Transpiration rate (maize stomatal movement): suppressed
Expression of ABA-responsive genes ZmLEA, Zm.12309.1.S and ZmCOR410 [2]: induced the expression of ABA-responsive genes
